From PMC4492732 (Pharmacology Research & Perspectives, 2015)

How the values were obtained:
[1] = molecular target: α7-nicotinic acetylcholine receptor; conditions: ref Moaddel et al. [2013]; cited from earlier work
[2] = organic phase relative to aqueous phase; ref Leung and Baillie ([1986]); cited from earlier work
[3] = after i.v. (R,S)-Ket; ref Cohen et al. [1973]; cited from earlier work
Incubation of = format: in vitro ADME, Wistar rat; conditions: 0.1, 1 and 10 μmol/L; 1 mg/mL S9, NADPH; up to 120 min; data not shown
[4] = rat, ref Leung and Baillie ([1986]), cited from earlier work; for increased spontaneous locomotor activity: postanesthetic recovery phase
[5] = Brain tissue concentrations of Ket and; conditions: for Brain tissue concentration 10 min / Brain tissue concentration 20 min / Brain tissue concentration 60 min / ratio of brain tissue concentration: plasma concentration 10 min / ratio of brain tissue concentration: plasma concentration 20 min / ratio of brain tissue concentration: plasma concentration 60 min: after i.v. 20 mg/kg (R)-Ket; for Brain tissue concentration 10 min / Brain tissue concentration 20 min / Brain tissue concentration 60 min: n = 3, ±SD
[6] = Plasma concentrations of Ket and; format: in vivo, Wistar rat; conditions: after i.v. 20 mg/kg (R)-Ket, n = 3, ±SD
[7] = Pharmacokinetic parameters for; format: in vivo, Wistar rat; conditions: metabolite after single i.v. 40 mg/kg (R,S)-Ket

Structure (SMILES)	increased spontaneous locomotor activity [4]	duration of anesthesia [4]	Brain tissue concentration 10 min [5]	Brain tissue concentration 20 min [5]	Brain tissue concentration 60 min [5]	Plasma concentration 10 min [6]	Plasma concentration 20 min [6]	Plasma concentration 60 min [6]	also measured
NC1(c2ccccc2Cl)CCC=CC1=O (racemic) [(R,S)-DHNK, (R,S)-dehydronorketamine]	–	–	–	–	–	–	–	–	IC50 [1]: < 100 nM
CNC1(c2ccccc2Cl)CCCCC1=O (racemic) [(R,S)-Ket, ketamine, reference compound]	25 min	7 min	–	–	–	–	–	–	relative hydrophobicity from partition coefficients [2]: slightly more hydrophobic; time to peak brain tissue concentrations [3]: less than 1 min; Ket metabolites formed in incubates (Incubation of): did not contain any known Ket metabolites
NC1(c2ccccc2Cl)CCCCC1=O (racemic) [(R,S)-norKet, (R,S)-norketamine]	7 min	3 min	–	–	–	–	–	–	–
N[C@@]1(c2ccccc2Cl)CCC[C@@H](O)C1=O [(2R,6R)-HNK, (2R,6R)-hydroxynorketamine]	–	–	274 ± 47 ng/g tissue	191 ± 50 ng/g tissue	156 ± 34 ng/g tissue	345 ± 115 ng/mL	316 ± 58 ng/mL	200 ± 24 ng/mL	–
N[C@@]1(c2ccccc2Cl)CCC[C@H](O)C1=O [(2R,6S)-HNK]	–	–	141 ± 20 ng/g tissue	78 ± 37 ng/g tissue	48 ± 28 ng/g tissue	222 ± 29 ng/mL	96 ± 6 ng/mL	35 ± 6 ng/mL	ratio of brain tissue concentration: plasma concentration 10 min [5]: (0.6); ratio of brain tissue concentration: plasma concentration 20 min [5]: (0.8); ratio of brain tissue concentration: plasma concentration 60 min [5]: (1.4); average ratio of brain tissue concentration to plasma concentration ([5]; after i.v. (S)-Ket or (R)-Ket, respectively, over the first 20 min post administration): ~1
N[C@@]1(c2ccccc2Cl)CCC[C@@H](O)C1=O [(2S,6S;2R,6R)-HNK, (2S,6S;2R,6R)-hydroxynorketamine]	no effect	no effect	–	–	–	–	–	–	IC50 [1]: < 100 nM; relative hydrophobicity from partition coefficients [2]: significantly less lipophilic; t1/2 [7]: 9.5 ± 5.4 h
CN[C@@]1(c2ccccc2Cl)CCCCC1=O [(R)-Ket, (R)-ketamine, reference compound]	–	–	16,365 ± 1931 ng/g tissue	8715 ± 4433 ng/g tissue	5224 ± 3391 ng/g tissue	3430 ± 400 ng/mL	1420 ± 103 ng/mL	498 ± 116 ng/mL	ratio of brain tissue concentration: plasma concentration 10 min [5]: (4.8); ratio of brain tissue concentration: plasma concentration 20 min [5]: (6.1); ratio of brain tissue concentration: plasma concentration 60 min [5]: (10.5)
